Test results: patent US12077495B2 (priority 2018, dated 2024)

Tests used:
[1] = biological target: T1, high-affinity forebrain binding sites (Mus musculus, UniProt P11798); assay: Ex vivo 3H-A radioligand binding, autoradiography of mouse brain sections; format: in vivo, mice; details: 5 MBq per mouse i.p.; 30 min
T1 construct: from tissue; host or cells: C57BL/6J mouse brain (hippocampus, cortex) after i.p. injection of 3H-A
Method: ^3H-A was used to perform ex vivo binding to C57BL/6J mice. Thus, in a design with 5 mice per group, ^3H-A (5 MBq per mouse) was injected i.p. After 30 min, the brains were dissected and autoradiography performed.

CAMK2A = biological target: T2, CAMK2A (Rattus norvegicus, UniProt P11275); assay: biochemical; format: binding; details: non-specific: 1 mM GHB
T2 construct: host or cells: HEK293T
T2 sequence (P11275 whole entry): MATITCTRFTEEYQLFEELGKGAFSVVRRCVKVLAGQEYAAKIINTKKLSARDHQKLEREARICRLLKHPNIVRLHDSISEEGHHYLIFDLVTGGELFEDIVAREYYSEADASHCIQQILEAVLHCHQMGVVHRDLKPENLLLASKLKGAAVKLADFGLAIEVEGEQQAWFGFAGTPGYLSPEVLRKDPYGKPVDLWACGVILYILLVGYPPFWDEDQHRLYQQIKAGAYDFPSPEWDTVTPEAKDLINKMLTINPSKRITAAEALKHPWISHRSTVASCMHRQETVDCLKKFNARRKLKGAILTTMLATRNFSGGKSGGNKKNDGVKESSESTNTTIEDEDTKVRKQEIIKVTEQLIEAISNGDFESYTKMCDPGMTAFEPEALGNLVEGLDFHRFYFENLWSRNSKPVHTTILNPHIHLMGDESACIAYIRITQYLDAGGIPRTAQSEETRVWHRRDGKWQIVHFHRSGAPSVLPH
Method: Cells were transfected with rat CAMK2A (Origene construct RR201121) or rat CAMK2B (Origene construct RR200520) using PolyFect (Qiagen, West Sussex, UK) according to the manufacturer's protocol. Whole cell homogenates were prepared 48 hr post-transfection by washing the cells with ice-cold 1×PBS and harvesting by scraping. Cells were collected and centrifuged for 10 min at 1000×g. Cell pellets were resuspended in ice-cold 1×PBS and homogenized using 2×1 mm zirkonium beads in a bullet blender for 20 s at max speed (NextAdvance, NY, USA). Homogenates were cleared by centrifugation (10 min, 4° C., 14.000×g). Protein concentration was determined using the Bradford protein assay. 150-200 μg protein was incubated with 5 nM ^3H-A and test compound in 1 ml total volume for 1 hr at 0-4° C. […] Proteins were then precipitated by addition of ice-cold acetone (4× of the assay volume), vortexing and incubation at −20° C. for 1 hr. Proteins were filtrated rapidly through GF/C unifilters (Whatman) and washed. The dried filters were added scintillation liquid and radioactivity measured on a Tricarb 2100 Scintillation counter (Packard).
A) Principle of photoaffinity labelling workflow. […] After introduction of biotin through a Staudinger-Bertozzi ligation to EZ-Link™ Phosphine-PEG3-Biotin (ThermoFisher Scientific), the biotin-labelled proteins were affinity-purified and subjected to LC-MS/MS analysis. […] C)^3H-A binding to cortical membranes from CAMK2A and CAMK2B knock-out mouse brains.
Human/rat CAMK2A expressed in HEK cells was assayed in an in-house established ^3H-A filtration binding assay performed on whole cell lysates of CAMK2A-transfected HEK293T cells.

CAMK2B = biological target: T3, CAMK2B (Rattus norvegicus, UniProt P08413); assay: 3H-A binding to recombinant CAMK2B expressed in HEK293T cells; details: HEK293T whole cell homogenate
T3 construct: host or cells: HEK293T
T3 sequence (P08413 whole entry): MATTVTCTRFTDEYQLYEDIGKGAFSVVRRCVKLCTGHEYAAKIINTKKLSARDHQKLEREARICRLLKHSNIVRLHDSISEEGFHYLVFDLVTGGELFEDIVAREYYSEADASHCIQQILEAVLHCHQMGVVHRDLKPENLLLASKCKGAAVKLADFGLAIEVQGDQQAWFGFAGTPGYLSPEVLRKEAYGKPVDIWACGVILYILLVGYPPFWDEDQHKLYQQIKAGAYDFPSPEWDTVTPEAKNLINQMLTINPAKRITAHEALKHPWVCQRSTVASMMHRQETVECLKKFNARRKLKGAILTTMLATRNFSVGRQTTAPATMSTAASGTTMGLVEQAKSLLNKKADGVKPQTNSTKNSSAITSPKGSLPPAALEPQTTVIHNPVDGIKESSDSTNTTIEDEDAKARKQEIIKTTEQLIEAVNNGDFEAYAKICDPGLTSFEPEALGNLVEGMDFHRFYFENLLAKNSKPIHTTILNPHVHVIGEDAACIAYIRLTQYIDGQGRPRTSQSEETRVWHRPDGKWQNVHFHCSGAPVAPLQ
Method: HEK293T were cultured using standard conditions, using Dulbecco's modified Eagle Medium with GlutaMax, 10% fetal bovine serum and 1% penicillin-streptomycin, and incubated at 37° C. in a humidified atmosphere of […] and 5% CO2. Cells were transfected with rat CAMK2A (Origene construct RR201121) or rat CAMK2B (Origene construct RR200520) using PolyFect (Qiagen, West Sussex, UK) according to the manufacturer's protocol. Whole cell homogenates were prepared 48 hr post-transfection by washing the cells with ice-cold 1×PBS and harvesting by scraping. Cells were collected and centrifuged for 10 min at 1000×g. Cell pellets were resuspended in ice-cold 1×PBS and homogenized using 2×1 mm zirkonium beads in a bullet blender for 20 s at max speed (NextAdvance, NY, USA). Homogenates were cleared by centrifugation (10 min, 4° C., 14.000×g). Protein concentration was determined using the Bradford protein assay. 150-200 μg protein was incubated with 5 nM ^3H-A and test compound in 1 ml total volume for 1 hr at 0-4° C. […] Proteins were then precipitated by addition of ice-cold acetone (4× of the assay volume), vortexing and incubation at −20° C. for 1 hr. Proteins were filtrated rapidly through GF/C unifilters (Whatman) and washed. The dried filters were added scintillation liquid and radioactivity measured on a Tricarb 2100 Scintillation counter (Packard). […]

[2] = peripheral administration; cited from earlier work
rodents = assay: Observation of acute toxicity or sedation in rodents; format: in vivo; details: doses as high as 500 mg/kg

T1 sequence (P11798 whole entry): as the sequence (P11275 whole entry) above

Compound	ex vivo specific binding in hippocampus and cortex vs cerebellum [1]	specific binding to CAMK2A-transfected HEK293T whole cell homogenate (CAMK2A)	specific binding at CAMK2B (CAMK2B)	brain entry [2]	acute toxicity or sedation (rodents)
[3H]C1(O)C=C(C(=O)O)CC1 (centres unmarked) [^3H-A]	Significant specific binding levels	87%	no specific binding	–	–
O=C([O-])C1=CC(O)CC1.[Na+] (centres unmarked) [sodium salt of A]	–	–	–	readily enters the brain	no apparent observations of acute toxicity or sedation
